Data taken from patent publication US10280197B2, “Discovery of the first selective C5A receptor 2 (C5L2/C5AR2) ligands” (The Regents of the University of California, priority 2015, dated 2019).

Key:
[1] = target: T1, human C5a2 (Flp-In CHO-C5a2 membranes) (Homo sapiens, UniProt Q9P296); experiment: C5a2 receptor binding, scintillation proximity assay (125I-C5a displacement); conditions: for Ki: inhibition of 125I-C5a binding to C5a2 membranes; for inhibition of 125I-C5a binding to C5a2 membranes, library screen: single concentration of 100 μM, compared to buffer control, P<0.05; for inhibition of 125I-C5a binding to C5aR2 membranes, full concentration response: up to a maximum concentration of 500 μM
T1 construct: expressed in transfected cells
Procedure: Membranes were prepared from Flp-In CHO-05a2 cells by a previously described method^46. Briefly, cells were washed with PBS, pH 7.4, and harvested into buffer (50 mM Tris-HCl, pH 7.4, 5 mM MgCl2, 1 mM CaCl2) before homogenizing with a Polytron homogenizer for 3 min on setting 22. Cells were centrifuged at 150×g for 5 min at 4° C. The supernatant was recovered and centrifuged at 22 000×g for 1 h at 4° C. Membrane pellets were then resuspended in 0.4 mL of ice-cold buffer (50 mM Tris-HCl, pH 7.4, 5 mM MgCl2, 1 mM CaCl2, containing 10% glycerol) with aliquots stored at −80° C. The protein concentration of the membrane preparation was determined by Bradford method^47.
C5a2 receptor binding studies were performed using a modification of a previously described scintillation proximity assay (SPA) method^48. Briefly, C5a2 SPA studies were performed in 96-well white isoplates with clear flat bottoms (Perkin Elmer, Waltham, Mass., USA). SPA beads (200 μg/well) were added, following the addition of various concentrations of competing ligands or buffer (6 pM to 500 μM) in a total volume of 80 μL of assay buffer (50 mM Tris-HCl, pH 7.4, 0.5% BSA, 5 mM MgCl2, 1 mM CaCl2). ^125I-C5a (˜20 pM) (specific activity, 2200 Ci mmol^−1) (Perkin Elmer) was added to C5a2 membrane preparations (˜2 μg/well). The final reaction volume per well comprised 20 μL of ligand/buffer, 20 μL of SPA beads, 20 μl of membrane and the assay was initiated by the addition of 20 μL of ^125I-C5a. The plate was then sealed using TopSeal-A (Perkin Elmer) sealing film and incubated with shaking for 1 h at room temperature. Radioligand binding was then assessed for 30 s/well using a 1450 Microbeta scintillation counter (Perkin Elmer).

C5a2 = C5a2 (Homo sapiens, UniProt Q9P296); experiment: DiscoveRx PathHunter β-arrestin 2 recruitment, C5a2; format: cell-based; design: purchased DiscoveRx Corporation (Birmingham, UK); conditions: 100 μM, data not shown
C5a1 = target: T2, C5a1 (Homo sapiens, UniProt P21730); conditions: up to a concentration of 100 μM, reference 27; cited from earlier work
T2 sequence (P21730 1-350): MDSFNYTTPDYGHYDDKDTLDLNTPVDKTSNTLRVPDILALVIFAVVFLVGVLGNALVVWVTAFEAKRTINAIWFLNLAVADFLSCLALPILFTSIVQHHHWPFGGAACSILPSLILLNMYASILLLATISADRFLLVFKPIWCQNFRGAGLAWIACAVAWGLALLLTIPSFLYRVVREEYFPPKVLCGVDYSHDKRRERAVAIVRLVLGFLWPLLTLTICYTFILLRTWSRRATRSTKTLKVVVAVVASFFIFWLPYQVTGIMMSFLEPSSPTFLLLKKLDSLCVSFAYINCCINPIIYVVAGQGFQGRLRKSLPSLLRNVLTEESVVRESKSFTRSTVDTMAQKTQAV

LPS stimulated HMDM = experiment: Cytokine release from LPS stimulated HMDM (ELISA); format: cell-based, human; conditions: for IL-6 release from LPS stimulated HMDM / IL-10 release from LPS stimulated HMDM / TNFα release from LPS stimulated HMDM: 24 h after co-stimulation with LPS 10 ng/ml, peptides 0.1-100 μM; for IL-6 release from LPS stimulated HMDM in the presence of PMX53: C5a1 antagonist PMX53 10 μM pre-incubated 30 min
Procedure: FIG. 4 is a panel of graphs showing the testing P32 and P59 for effects on cytokine release from LPS stimulated HMDM. Measurement of human inflammatory cytokines IL-6 (4A, 4B), TNFα (4C, 4D) and IL-10 (4E, 4F) release from HMDM, 24 h after co-stimulation with LPS (10 ngml^−1) and C5a (0.1-100 nM), P32 or P59 (0.1-100 μM) with or without C5a1 antagonist PMX53 (10 μM) present. Cytokine release was quantified by ELISA. Data is representative of five independent HMDM donors performed in triplicate (n=5). CTRL represents non-stimulated HMDM. Data is normalised to LPS response (100%) for each donor. Error bars represent SEM. *P<0.05, ** P<0.01, *** P<0.001, **** P<0.0001 by one-way ANOVA followed by Dunnett's post hoc test or Sidak's post hoc test for comparisons+/−PMX53.
Briefly, HMDMs were seeded in 96 well tissue culture plates (Nunc) at 100 000 cells/well and allowed to adhere overnight at 37° C. and 5% CO2. The next day HMDMs were stimulated with E. coli derived LPS (10 ng ml^−1) only or LPS (10 ng ml^−1) and either C5a or C5a2 ligands at various concentrations (1-100 nM (C5a) or 0.1-100 μM (C5a2 ligands)). For testing cytokine release in the presence of C5a1 antagonist (PMX53), cells were pre-incubated with PMX53 at 10 μM for 30 min prior to addition of C5a or C5a2 ligands. Following ligand addition HMDMs were returned to 37° C. and 5% CO2 incubator and 24 h after stimulation supernatant was removed from cells and transferred to 96 well polypropylene microplate (Nunc) and stored at −20° C. till needed for assay. Quantification of cytokine release was performed using ELISA kits (BD OptEIA™) as per manufacturers' instructions (BD Biosciences, San Jose, Calif., USA).

T1 sequence (Q9P296 whole entry): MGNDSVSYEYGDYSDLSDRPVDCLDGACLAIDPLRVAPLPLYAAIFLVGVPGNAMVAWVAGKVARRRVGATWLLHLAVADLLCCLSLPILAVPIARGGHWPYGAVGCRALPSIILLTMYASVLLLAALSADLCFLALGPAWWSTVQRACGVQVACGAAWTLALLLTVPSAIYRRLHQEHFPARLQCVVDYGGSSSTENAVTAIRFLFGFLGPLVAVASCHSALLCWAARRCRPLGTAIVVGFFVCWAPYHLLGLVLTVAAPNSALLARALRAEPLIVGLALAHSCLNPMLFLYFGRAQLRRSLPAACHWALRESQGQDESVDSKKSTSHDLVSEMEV
Sequence of C5a2 (Q9P296 whole entry): as above

Row | Substance | Ki [1] [µM] | affinity for C5aR2 over C5aR1 ([1]; ratio of C5aR1 and C5aR2 affinities) [fold] | inhibition of 125I-C5a binding to C5a2 membranes, library screen [1] | inhibition of 125I-C5a binding to C5aR2 membranes, full concentration response [1] | ligand induced β-arrestin 2 recruitment at C5a2 (PathHunter) (C5a2) | activity (agonist or antagonist) at C5a1 (C5a1) | IL-6 release from LPS stimulated HMDM (LPS stimulated HMDM) | IL-10 release from LPS stimulated HMDM (LPS stimulated HMDM) | TNFα release from LPS stimulated HMDM (LPS stimulated HMDM) | IL-6 release from LPS stimulated HMDM in the presence of PMX53 (LPS stimulated HMDM)
1 | Ac-LIRLWR-OH [Peptide P59, Ac-LIRLWR-OH] | 48 | ~10 | significant inhibition | dose-dependently inhibited | showed activity at C5a2 | no activity | only showed significant inhibition of IL-6 at 100 μM | no effect | no effect | unaffected
2 | Ac-RHYPYWR-OH [Peptide P32, Ac-RHYPYWR-OH] | 223 |  | significant inhibition | dose-dependently inhibited | showed activity at C5a2 | no activity | significant inhibition of IL-6 release at two (10 and 100 μM) of the four doses tested | no effect | no effect | unaffected
